This note sets out measurements from patent publication US12389930B2, “Breast milk-derived Lactobacillus plantarum and use thereof” (Beijing Sanyuan Foods Co., Ltd., priority 2020, dated 2025).

The assay relates to Lactobacillus plantarum P6. Briefly: Drug resistance determination (E-test strips, MIC). The class given is cell-based. Details: key to Susceptibility class of P6 to the antibiotic: S: susceptible; I: intermediate; R: resistance. As to conditions: for MIC: Lactiplantibacillus plantarum, P6, read-out: Minimum inhibitory concentration MIC; for Susceptibility of P6 to the antibiotic (in words): summary of Table 3. The protocol:
The cultured P6 bacteria solution was activated for three generations, and streaked on the MRS solid medium plate, which was then cultured in an anaerobic incubator at 37° C. for 24 hours. A single colony was picked up and dissolved in normal saline to prepare a suspension equivalent to 0.5 […] concentration, which was then coated on an MH solid medium. After drying, ten E-test strips were attached onto the MH solid medium, and cultured at 37° C. for 24-48 hours. The MIC value (minimum inhibitory concentration value) was determined according to the inhibition zone diameter. Escherichia coli ATCC25922 and Staphylococcus aureus ATCC25923 were used as quality-control strains. Quality-control strains were used as control for each batch test, and the MIC of the quality-control strains was required to be within the range specified by CLSI (Clinical and Laboratory Standards […]). An MH solid plate without antibiotics was used as blank control.

The mark [1] stands for this setting: E-test, MH solid medium, 37° C., 24-48 hours.

In brackets after ≈: the same amount, converted by molar mass.

With `CCC[C@@H]1C[C@@H](C(=O)N[C@@H]([C@H]2O[C@H](SC)[C@H](O)[C@@H](O)[C@H]2O)[C@H](C)Cl)N(C)C1` [clindamycin], the MIC under setting [1] was 0.016 µg/mL (≈ 0.0376 µM).

Consider `CO/N=C(\C(=O)N[C@@H]1C(=O)N2C(C(=O)O)=C(CSc3nc(=O)c(=O)[nH]n3C)CS[C@H]12)c1csc(N)n1` [ceftriaxone], for which the “Susceptibility of P6 to the antibiotic (in words)” value (“Susceptibility of P6” below) is “extremely susceptible”. Further, the MIC under setting [1] was found to be 0.125 µg/mL (≈ 0.225 µM).

In the case of `NCC[C@H](O)C(=O)N[C@@H]1C[C@H](N)[C@@H](O[C@H]2O[C@H](CN)[C@@H](O)[C@H](O)[C@H]2O)[C@H](O)[C@H]1O[C@H]1O[C@H](CO)[C@@H](O)[C@H](N)[C@H]1O` [amikacin], the “Susceptibility of P6” value was “extremely susceptible”. For the same molecule, the MIC under setting [1] stood at 2 µg/mL (≈ 3.42 µM).

In the case of `CC1(C)S[C@@H]2[C@H](NC(=O)[C@H](N)c3ccccc3)C(=O)N2[C@H]1C(=O)O` [ampicillin], the “Susceptibility of P6” value is on record as “extremely susceptible”. The MIC under setting [1] is 1.5 µg/mL (≈ 4.29 µM).

For the molecule `O=C(N[C@H](CO)[C@H](O)c1ccc([N+](=O)[O-])cc1)C(Cl)Cl` [chloramphenicol], the “Susceptibility of P6” value is on record as “intermediately susceptible”. Further, under setting [1], the MIC turned out to be 16 µg/mL (≈ 49.5 µM).

For `CC1(C)S[C@@H]2[C@H](NC(=O)Cc3ccccc3)C(=O)N2[C@H]1C(=O)O` [penicillin G], the “Susceptibility of P6” value is recorded as “resistant”. The “Minimum inhibitory concentration MIC” value under setting [1] amounted to 32 µg/mL (≈ 95.7 µM). For the same molecule, for the setting “E-test, class after the slash in the MIC cell”, the “Susceptibility class of P6 to the antibiotic” value is recorded as “R”.

Regarding `CN(C)[C@@H]1C(O)=C(C(N)=O)C(=O)[C@@]2(O)C(O)=C3C(=O)c4c(O)cccc4[C@@](C)(O)[C@H]3C[C@@H]12` [tetracycline], the MIC under setting [1] was 256 µg/mL (≈ 576 µM).

`CC[C@H]1OC(=O)[C@H](C)[C@@H](O[C@H]2C[C@@](C)(OC)[C@@H](O)[C@H](C)O2)[C@H](C)[C@@H](O[C@@H]2O[C@H](C)C[C@H](N(C)C)[C@H]2O)[C@](C)(O)C[C@@H](C)CN(C)[C@H](C)[C@@H](O)[C@]1(C)O` [azithromycin, Azithromycin]: the “Susceptibility of P6” value is reported as “extremely susceptible”. For the same molecule, under setting [1], the MIC stood at 0.094 µg/mL (≈ 0.126 µM).

Take `CC[C@H]1OC(=O)[C@H](C)[C@@H](O[C@H]2C[C@@](C)(OC)[C@@H](O)[C@H](C)O2)[C@H](C)[C@@H](O[C@@H]2O[C@H](C)C[C@H](N(C)C)[C@H]2O)[C@](C)(O)C[C@@H](C)C(=O)[C@H](C)[C@@H](O)[C@]1(C)O` [erythromycin]: the “Susceptibility of P6” value is on record as “extremely susceptible”. Besides, the MIC under setting [1] was found to be 0.38 µg/mL (≈ 0.518 µM).
